Source: patent publication US20250313552A1, “NICOTINATE ESTERS AND THERAPEUTIC METHODS OF USE THEREOF” (New Frontier Bio, Inc., priority 2024, published 2025)

System: Keratinocytes
Assay: NAD assay in keratinocytes (NAD+ increase)
Assay type: cell-based
Settings: 3 hours incubation with compound, normalized NAD, ratio vs PBS control
Experimental: Keratinocytes were plated in 12-well tissue culture plates at a density of 200,000 cells per well. The wells contained 0.75 mL DMEM growth medium with 2% HI FBS and cells were incubated overnight at 37° C. at 5% CO2. The following day, cells were dosed with the desired concentration of each compound and incubated for 3 hours. Following the incubation period, cell monolayers were washed with 200 μL of PBS. Cells were then allowed to lift using 0.25% trypsin for 15 minutes. After lifting, cells were collected into a sterile 1.5 mL centrifuge tube containing 400 μL of DMEM with 2% HI FBS. The cell lysates then centrifuged at 500×g for 5 minutes. Following this, the supernatant was aspirated off of the cell pellet and cells were washed again in 200 μL of PBS and centrifuged at 500×g for 5 minutes. PBS was aspirated off of the cell pellet and 400 μL of cold extraction buffer was added. Each centrifuge tube was then vortexed for 10 seconds. The resulting samples were centrifuged at 13,000×g for 10 minutes at 4° C. to remove insoluble material. After centrifuging, 50 μL of each sample was used to determine in duplicates the total protein concentration by a BCA protein assay kit. The remaining samples were then deproteinized by centrifuging and filtering them through a 10 kDa cut-off spin filter at 13,000xg for 10 minutes at 4° C. Following deproteinization, the samples were loaded into a 96 well plate in duplicates. The amount loaded was dependent on their protein concentration to ensure a uniform protein content for each sample. The final volume in the well was brought up to 50 μL using the cell extraction buffer. 50 μL of each standard was added to the appropriate wells. 98 μL of cycling buffer and 2 μL of NAD cycling enzyme were added to each well and the wells were incubated at room temperature for 5 minutes. 10 μL of developer was added to each well and the plate was incubated at room temperature for one hour. The reaction was stopped by adding 10 μL of stop solution to each well. The absorbance of each well was measured at 450 nm using a plate reader. A standard curve was plotted and normalized NAD values were determined.

SMILES	NAD+ increase ratio compared to PBS control
O=C1O[C@H]([C@@H](O)COC(=O)c2cccnc2)C(O)=C1O[C@H]1O[C@H](CO)[C@@H](O)[C@H](O)[C@H]1O [Compound 8, (S)-2-hydroxy-2-((R)-3-hydroxy-5-oxo-4-(((2R,3R,4S,5S,6R)-3,4,5-trihydroxy-6-(hydroxymethyl)tetrahydro-2H-pyran-2-yl)oxy)-2,5-dihydrofuran-2-yl)ethyl nicotinate]	1.5
CCCCCCCCCCCCCCCC(=O)OC[C@H](OC(=O)c1cccnc1)[C@H]1OC(=O)C(OC(=O)c2cccnc2)=C1OC(=O)c1cccnc1 [Compound 4, (R)-2-((S)-1-(nicotinoyloxy)-2-(palmitoyloxy)ethyl)-5-oxo-2,5-dihydrofuran-3,4-diyl dinicotinate]	3.04
O=C(/C=C/C=C/c1ccc2c(c1)OCO2)NCCOC(=O)c1cccnc1 [Compound 10, 2-((2E,4E)-5-(benzo[d][1,3]dioxol-5-yl)penta-2,4-dienamido)ethyl nicotinate]	1.57
O=C1O[C@H]([C@@H](O)COC(=O)c2cccnc2)C(O)=C1O [Compound 6, (S)-2-((R)-3,4-dihydroxy-5-oxo-2,5-dihydrofuran-2-yl)-2-hydroxyethyl nicotinate]	0.99
NC(=O)c1ccc[n+]([C@@H]2O[C@H](COC(=O)CCCCC3CCSS3)[C@@H](OC(=O)CCCCC3CCSS3)[C@H]2OC(=O)CCCCC2CCSS2)c1 (stereo partly drawn) [Compound 12, 1-((2R,3R,4R,5R)-3,4-bis((5-(1,2-dithiolan-3-yl)pentanoyl)oxy)-5-(((5-(1,2-dithiolan-3-yl)pentanoyl)oxy)methyl)tetrahydrofuran-2-yl)-3-carbamoylpyridin-1-ium]	1.16
O=C(CCC[P+](c1ccccc1)(c1ccccc1)c1ccccc1)NCCOC(=O)c1cccnc1 [Compound 9, (4-((2-(nicotinoyloxy)ethyl)amino)-4-oxobutyl)triphenylphosphonium]	1.67
CCCCCCCCCCCCCCCC(=O)OC[C@@H](O)[C@H]1OC(=O)C(OC(=O)c2cccnc2)=C1OC(=O)c1cccnc1 [Compound 15, (R)-2-((R)-1-hydroxy-2-(palmitoyloxy)ethyl)-5-oxo-2,5-dihydrofuran-3,4-diyl dinicotinate]	1.84
CCCCCCCCCCCCCCCC(=O)OC[C@H](O)[C@H]1OC(=O)C(OC(=O)c2cccnc2)=C1OC(=O)c1cccnc1 [Compound 14, (R)-2-((S)-1-hydroxy-2-(palmitoyloxy)ethyl)-5-oxo-2,5-dihydrofuran-3,4-diyl dinicotinate]	8.33
O=C(OCc1cc(=O)c(OC(=O)c2cccnc2)co1)c1cccnc1 [Compound 5, (5-(nicotinoyloxy)-4-oxo-4H-pyran-2-yl)methyl nicotinate]	1.51
CCCCCCCCCCCCCCCC(=O)OC[C@@H](O)[C@@H]1OC(=O)C(OC(=O)c2cccnc2)=C1OC(=O)c1cccnc1 [Compound 1, (S)-2-((R)-1-hydroxy-2-(palmitoyloxy)ethyl)-5-oxo-2,5-dihydrofuran-3,4-diyl dinicotinate]	8.19
O=C1O[C@H]([C@@H](O)COC(=O)c2cccnc2)C(O)=C1O[C@H]1O[C@H](COC(=O)c2cccnc2)[C@@H](O)[C@H](O)[C@H]1O [Compound 7, (S)-2-hydroxy-2-((R)-3-hydroxy-5-oxo-4-(((2R,3R,4S,5S,6R)-3,4,5-trihydroxy-6-((nicotinoyloxy)methyl)tetrahydro-2H-pyran-2-yl)oxy)-2,5-dihydrofuran-2-yl)ethyl nicotinate]	1.5
CCCCCCCCCCCCCCCC(=O)OC[C@@H](O)[C@@H]1OC(=O)C(OC(=O)c2cccnc2)=C1O [Compound 2, (S)-4-hydroxy-5-((R)-1-hydroxy-2-(palmitoyloxy)ethyl)-2-oxo-2,5-dihydrofuran-3-yl nicotinate]	2.53
NC(=O)c1ccc[n+]([C@@H]2O[C@H](COC(=O)c3cccnc3)[C@@H](OC(=O)c3cccnc3)[C@H]2OC(=O)c2cccnc2)c1 [Compound 13, 1-((2R,3R,4R,5R)-3,4-bis(nicotinoyloxy)-5 ((nicotinoyloxy)methyl)tetrahydrofuran-2-yl)-3-carbamoylpyridin-1-ium]	1.67
CCCCCCCCCCCCCCCC(=O)OC[C@@H](O)[C@@H]1OC(=O)C(O)=C1OC(=O)c1cccnc1 [Compound 3, (S)-4-hydroxy-2-((R)-1-hydroxy-2-(palmitoyloxy)ethyl)-5-oxo-2,5-dihydrofuran-3-yl nicotinate]	2.77
CC(C)(COC(=O)c1cccnc1)C(OC(=O)c1cccnc1)C(=O)NCCCOC(=O)c1cccnc1 (stereo not drawn) [Compound 11, 2,2-dimethyl-4-((3-(nicotinoyloxy)propyl)amino)-4-oxobutane-1,3-diyl dinicotinate]	2.7
